pIC50: −log10 of the molar value. Like-named read-outs stand apart in the source and are kept apart here.
Key:
Format in all cases: biochemical
PI3K α = PI3K α (Homo sapiens (Human), UniProt P42336); experiment: PI 3-Kinase (human) HTRF assay, p110α/p85α
PI3K β = PI3K β (Homo sapiens (Human), UniProt P42338); experiment: PI 3-Kinase (human) HTRF assay, p110β/p85α
PI3K δ = PI3K δ (Homo sapiens (Human), UniProt O00329); experiment: PI 3-Kinase (human) HTRF assay, p110δ/p85α
PI3K γ = PI3K γ (Homo sapiens (Human), UniProt P48736); experiment: PI 3-Kinase (human) HTRF assay, p110γ
Procedure: An exemplary system is PI 3-Kinase (human) HTRF™ Assay from Upstate. […] Briefly, the assay is a time resolved FRET assay that indirectly measures PIP3 product formed by the activity of a PI3-K. The kinase reaction is performed in a microtitre plate (e.g., a 384 well microtitre plate). The total reaction volume is approximately 20 ul per well. In the first step, each well receives 2 ul of test compound in 20% dimethylsulphoxide resulting in a 2% DMSO final concentration. Next, approximately 14.5 ul of a kinase/PIP2 mixture (diluted in 1× reaction buffer) is added per well for a final concentration of 0.25-0.3 ug/ml kinase and 10 μM PIP2. The plate is sealed and incubated for 15 minutes at room temperature. To start the reaction, 3.5 ul of ATP (diluted in 1× reaction buffer) is added per well for a final concentration of 10 μM ATP. The plate is sealed and incubated for 1 hour at room temperature. The reaction is stopped by adding 5 ul of Stop Solution per well and then 5 ul of Detection Mix is added per well. The plate is sealed, incubated for 1 hour at room temperature, and then read on an appropriate plate reader. Data is analyzed and IC50s are generated using GraphPad Prism 5. For PI3K α, β, δ, and γ, the nM concentration of inhibitor to reach IC50 is provided.

[1] = PI 3-Kinase (human) HTRF assay, p110δ/p85α; details: read-out: PI3K γ IC50

Chain of PI3K β (P42338 whole entry): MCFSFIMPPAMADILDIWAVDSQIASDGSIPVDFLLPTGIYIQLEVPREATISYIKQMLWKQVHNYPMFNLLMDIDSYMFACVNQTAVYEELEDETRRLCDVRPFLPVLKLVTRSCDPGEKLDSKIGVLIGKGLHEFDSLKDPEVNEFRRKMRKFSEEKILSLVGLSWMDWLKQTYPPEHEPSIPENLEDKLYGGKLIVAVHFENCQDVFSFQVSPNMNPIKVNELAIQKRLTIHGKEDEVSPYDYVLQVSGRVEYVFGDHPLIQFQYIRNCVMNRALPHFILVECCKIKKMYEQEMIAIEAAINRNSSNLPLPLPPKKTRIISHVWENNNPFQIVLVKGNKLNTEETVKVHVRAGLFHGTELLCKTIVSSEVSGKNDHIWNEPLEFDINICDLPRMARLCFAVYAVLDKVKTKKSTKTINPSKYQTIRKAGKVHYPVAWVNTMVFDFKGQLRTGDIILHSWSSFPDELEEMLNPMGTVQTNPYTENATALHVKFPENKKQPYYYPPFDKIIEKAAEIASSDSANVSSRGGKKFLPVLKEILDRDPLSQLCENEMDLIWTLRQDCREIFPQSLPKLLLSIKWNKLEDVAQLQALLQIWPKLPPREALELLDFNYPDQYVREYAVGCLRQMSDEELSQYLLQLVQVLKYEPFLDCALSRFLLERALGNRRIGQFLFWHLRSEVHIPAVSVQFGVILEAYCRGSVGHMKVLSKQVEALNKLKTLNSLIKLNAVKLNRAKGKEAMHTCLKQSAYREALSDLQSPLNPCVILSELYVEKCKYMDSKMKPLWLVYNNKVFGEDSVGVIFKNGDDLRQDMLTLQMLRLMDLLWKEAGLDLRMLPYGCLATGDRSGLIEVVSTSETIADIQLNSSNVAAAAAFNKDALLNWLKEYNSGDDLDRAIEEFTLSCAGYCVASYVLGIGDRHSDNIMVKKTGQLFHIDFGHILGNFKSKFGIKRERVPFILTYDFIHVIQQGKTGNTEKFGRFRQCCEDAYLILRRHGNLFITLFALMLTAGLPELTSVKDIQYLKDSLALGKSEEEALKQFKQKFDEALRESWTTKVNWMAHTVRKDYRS
Chain of PI3K β (P27986 whole entry partner): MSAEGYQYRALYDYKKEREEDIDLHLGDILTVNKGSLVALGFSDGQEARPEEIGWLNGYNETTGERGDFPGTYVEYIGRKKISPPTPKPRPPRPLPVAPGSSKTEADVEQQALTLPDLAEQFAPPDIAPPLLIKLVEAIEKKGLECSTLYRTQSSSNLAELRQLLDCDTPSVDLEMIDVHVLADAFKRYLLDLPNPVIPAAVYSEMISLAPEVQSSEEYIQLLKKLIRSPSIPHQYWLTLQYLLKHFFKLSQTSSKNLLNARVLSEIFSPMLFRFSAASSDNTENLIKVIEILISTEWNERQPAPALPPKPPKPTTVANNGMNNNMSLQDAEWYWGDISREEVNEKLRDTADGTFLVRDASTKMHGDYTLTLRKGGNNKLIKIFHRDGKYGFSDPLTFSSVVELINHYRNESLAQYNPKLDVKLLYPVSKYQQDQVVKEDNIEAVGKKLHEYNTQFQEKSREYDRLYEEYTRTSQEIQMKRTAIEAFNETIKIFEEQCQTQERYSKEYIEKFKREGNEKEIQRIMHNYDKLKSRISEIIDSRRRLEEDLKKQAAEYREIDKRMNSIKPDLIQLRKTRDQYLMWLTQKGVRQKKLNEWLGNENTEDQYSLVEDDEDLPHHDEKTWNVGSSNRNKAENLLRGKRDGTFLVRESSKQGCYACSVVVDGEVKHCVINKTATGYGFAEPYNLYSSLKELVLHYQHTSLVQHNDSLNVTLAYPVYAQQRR
Chain of PI3K α (P42336 whole entry): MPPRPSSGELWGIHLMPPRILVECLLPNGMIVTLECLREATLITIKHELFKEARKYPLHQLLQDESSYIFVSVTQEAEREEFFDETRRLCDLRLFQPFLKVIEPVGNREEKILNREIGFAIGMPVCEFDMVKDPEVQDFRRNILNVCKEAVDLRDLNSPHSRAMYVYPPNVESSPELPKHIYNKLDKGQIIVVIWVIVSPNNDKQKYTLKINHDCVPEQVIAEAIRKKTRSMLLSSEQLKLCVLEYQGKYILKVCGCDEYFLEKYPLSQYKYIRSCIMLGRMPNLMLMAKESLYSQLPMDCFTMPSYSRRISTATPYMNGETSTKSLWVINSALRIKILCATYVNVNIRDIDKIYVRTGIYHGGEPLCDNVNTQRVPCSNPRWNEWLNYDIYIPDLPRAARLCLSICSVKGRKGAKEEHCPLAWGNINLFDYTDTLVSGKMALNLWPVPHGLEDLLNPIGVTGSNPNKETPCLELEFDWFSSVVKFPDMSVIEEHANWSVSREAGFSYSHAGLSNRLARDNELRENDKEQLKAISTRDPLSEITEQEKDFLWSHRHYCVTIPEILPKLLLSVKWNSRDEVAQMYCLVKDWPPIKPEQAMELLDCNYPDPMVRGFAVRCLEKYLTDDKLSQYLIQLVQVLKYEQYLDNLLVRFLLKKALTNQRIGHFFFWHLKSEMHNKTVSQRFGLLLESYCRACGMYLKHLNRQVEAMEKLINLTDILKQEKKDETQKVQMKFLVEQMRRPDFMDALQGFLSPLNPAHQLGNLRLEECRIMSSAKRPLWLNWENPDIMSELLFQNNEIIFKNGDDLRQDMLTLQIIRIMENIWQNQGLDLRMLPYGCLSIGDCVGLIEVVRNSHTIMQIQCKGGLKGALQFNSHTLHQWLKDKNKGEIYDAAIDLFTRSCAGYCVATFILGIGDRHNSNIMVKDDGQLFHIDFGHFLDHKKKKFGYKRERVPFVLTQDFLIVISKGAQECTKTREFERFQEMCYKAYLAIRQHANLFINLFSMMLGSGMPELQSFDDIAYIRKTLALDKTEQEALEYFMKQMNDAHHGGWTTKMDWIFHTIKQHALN
Chain of PI3K α (P27986 whole entry partner): as the sequence (P27986 whole entry partner) above
Chain of PI3K δ (O00329 whole entry): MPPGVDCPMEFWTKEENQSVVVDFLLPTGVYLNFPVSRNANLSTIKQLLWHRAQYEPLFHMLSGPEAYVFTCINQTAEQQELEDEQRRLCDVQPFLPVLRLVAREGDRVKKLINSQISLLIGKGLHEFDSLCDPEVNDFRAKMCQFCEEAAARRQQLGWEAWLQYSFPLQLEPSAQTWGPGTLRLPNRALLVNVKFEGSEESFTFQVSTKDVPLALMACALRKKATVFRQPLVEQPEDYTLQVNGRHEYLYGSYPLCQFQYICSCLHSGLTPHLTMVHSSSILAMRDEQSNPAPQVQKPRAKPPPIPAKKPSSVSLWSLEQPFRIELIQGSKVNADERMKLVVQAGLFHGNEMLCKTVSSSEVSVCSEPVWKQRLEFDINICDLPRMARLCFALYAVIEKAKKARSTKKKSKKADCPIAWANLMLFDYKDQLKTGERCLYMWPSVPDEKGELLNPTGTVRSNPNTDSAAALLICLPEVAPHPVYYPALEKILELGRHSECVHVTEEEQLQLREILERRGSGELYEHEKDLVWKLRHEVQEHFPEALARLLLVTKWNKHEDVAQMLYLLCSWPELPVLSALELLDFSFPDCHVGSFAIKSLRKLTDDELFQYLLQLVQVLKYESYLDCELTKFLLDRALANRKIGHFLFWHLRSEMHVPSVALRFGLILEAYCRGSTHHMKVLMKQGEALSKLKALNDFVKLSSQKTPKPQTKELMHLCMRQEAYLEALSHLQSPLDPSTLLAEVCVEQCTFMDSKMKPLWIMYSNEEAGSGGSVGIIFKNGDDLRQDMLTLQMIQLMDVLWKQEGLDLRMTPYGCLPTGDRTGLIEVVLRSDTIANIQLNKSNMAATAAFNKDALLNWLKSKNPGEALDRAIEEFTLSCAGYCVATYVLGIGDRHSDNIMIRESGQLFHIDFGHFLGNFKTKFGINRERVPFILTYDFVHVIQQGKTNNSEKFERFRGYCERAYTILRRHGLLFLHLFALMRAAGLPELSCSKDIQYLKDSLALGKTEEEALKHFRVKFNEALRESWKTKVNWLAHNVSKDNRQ
Chain of PI3K δ (P27986 whole entry partner): as the sequence (P27986 whole entry partner) above

Structure (SMILES)	pIC50 (PI3K α)	pIC50 (PI3K β)	pIC50 (PI3K δ)	pIC50 (PI3K γ; read-out: PI3K γ IC50)	pIC50 [1]	pIC50 (PI3K γ; read-out: PI3K δ IC50)
Nc1nc2cc(-c3ccc4ncc(N5CCOCC5)n4n3)ccc2o1	> 6.00	> 6.00	< 5.00	> 5.00	–	–
Nc1nc2cc(-c3ccc4ncc(-c5cccnc5)n4n3)ccc2o1	> 7.00	> 7.00	> 7.00	> 7.00	–	–
Nc1nc2cc(-c3cnc4ncc(-c5ccncc5)n4c3)ccc2o1	< 5.00	< 5.00	< 5.00	< 5.00	–	–
Nc1nc2ccc(-c3ccc4ncn(C5CCOCC5)c(=O)c4c3)cc2o1	> 5.00	< 5.00	< 5.00	< 5.00	–	–
CC(=O)N1CCC(n2cnc3ccc(-c4ccc5oc(N)nc5c4)cc3c2=O)CC1	> 5.00	–	< 5.00	< 5.00	–	–
Nc1nc2cc(-c3cn4c(-c5ccncc5)cnc4cn3)ccc2o1	> 7.00	> 5.00	> 5.00	> 6.00	–	–
Nc1nc2cc(-c3cn4c(-c5cn[nH]c5)cnc4cn3)ccc2o1	> 6.00	> 5.00	> 5.00	> 6.00	–	–
Nc1nc2cc(-c3ccc4nccc(-c5ccncc5)c4c3)ccc2s1	> 7.00	> 7.00	> 7.00	> 7.00	–	–
Nc1nc2cc(-c3ccc4ncc(-c5ccncc5)nc4c3)ccc2o1	> 7.00	> 5.00	> 6.00	> 7.00	–	–
CCN1CCC(n2cnc3ccc(-c4ccc5oc(N)nc5c4)cc3c2=O)CC1	> 6.00	> 5.00	< 5.00	< 5.00	–	–
Nc1nc2cc(-c3ccc4ncn(C5CCNCC5)c(=O)c4c3)ccc2o1	> 7.00	> 5.00	< 5.00	> 5.00	–	–
Nc1nc2cc(-c3ccc4ncc(-c5cn[nH]c5)nc4c3)ccc2o1	> 7.00	> 6.00	> 6.00	> 7.00	–	–
CN1CCN(c2nc3cc(-c4ccc5oc(N)nc5c4)ccc3c(=O)n2C)CC1	> 5.00	< 5.00	< 5.00	< 5.00	–	–
Cn1c(N2CCOCC2)nc2cc(-c3ccc4oc(N)nc4c3)ccc2c1=O	> 6.00	< 5.00	< 5.00	< 5.00	–	–
CN1CCC(Nc2cnc3ccc(-c4ccc5oc(N)nc5c4)cc3n2)CC1	> 7.00	> 6.00	> 7.00	> 6.00	–	–
CC(=O)N1CCC(Nc2cnc3ccc(-c4ccc5oc(N)nc5c4)cc3n2)CC1	> 7.00	> 5.00	> 7.00	> 7.00	–	–
Nc1nc2cc(-c3ccc4ncc(C(=O)N5CC(N6CC[C@@H](O)C6)C5)n4c3)ccc2o1	> 7.00	> 5.00	–	–	> 5.00	> 6.00
Nc1nc2cc(-c3ccc4ncc(C(=O)N5CCC(F)(F)C5)n4c3)ccc2o1	> 7.00	< 5.00	–	–	< 5.00	> 7.00
CN(C(=O)c1cnc2ccc(-c3ccc4oc(N)nc4c3)cn12)C1CCOCC1	> 7.00	> 5.00	–	–	> 5.00	> 6.00
Nc1nc2cc(-c3ccc4ncc(C(=O)N5CC(F)(F)C5)n4c3)ccc2o1	> 7.00	< 5.00	–	–	< 5.00	> 7.00

Structure (SMILES)	pIC50 (PI3K α)	pIC50 (PI3K β)	pIC50 (PI3K δ)	pIC50 (PI3K γ; read-out: PI3K γ IC50)	pIC50 [1]	pIC50 (PI3K γ; read-out: PI3K δ IC50)
Nc1nsc2c(-c3ccc4ncc(C(=O)N5CCOCC5)n4c3)cccc12	> 5.00	< 5.00	–	–	< 5.00	< 5.00
Nc1nc2cc(-c3ccc4ncc(C(=O)N5CC[C@@H](F)C5)n4c3)ccc2o1	> 7.00	< 5.00	–	–	> 5.00	> 7.00
Nc1nc2cc(-c3ccc4ncc(C(=O)N5CC[C@H](F)C5)n4c3)ccc2o1	> 7.00	< 5.00	–	–	< 5.00	> 7.00
Nc1nc2cc(-c3ccc4ncc(C(=O)N5CC[C@@H](n6cccn6)C5)n4c3)ccc2o1	> 7.00	< 5.00	–	–	> 5.00	> 6.00
Nc1nc2cc(-c3ccc4ncc(C(=O)N5CC[C@H](n6cccn6)C5)n4c3)ccc2o1	> 7.00	> 5.00	–	–	> 6.00	> 6.00
Nc1nc2cc(-c3ccc4ncc(C(=O)N5CC(n6cccn6)C5)n4c3)ccc2o1	> 7.00	< 5.00	–	–	> 5.00	> 6.00
Nc1nc2cc(-c3ccc4ncc(C(=O)N5C6CCC5COC6)n4c3)ccc2o1	> 7.00	< 5.00	–	–	> 5.00	> 6.00
C[C@@H]1CCCN1C(=O)c1cnc2ccc(-c3ccc4oc(N)nc4c3)cn12	> 7.00	> 5.00	–	–	> 5.00	> 6.00
C[C@H]1CCCN1C(=O)c1cnc2ccc(-c3ccc4oc(N)nc4c3)cn12	> 7.00	< 5.00	–	–	> 5.00	> 6.00
C[C@H]1COCCN1C(=O)c1cnc2ccc(-c3ccc4oc(N)nc4c3)cn12	> 7.00	> 5.00	–	–	< 5.00	> 5.00
Nc1nc2cccc(-c3ccc4ncc(C(=O)N5CCOCC5)n4c3)c2o1	> 6.00	< 5.00	–	–	< 5.00	< 5.00
Nc1nc2cccc(-c3ccc4ncc(C(=O)N5CCOCC5)n4c3)c2s1	> 5.00	< 5.00	–	–	< 5.00	< 5.00
CNc1noc2cc(-c3ccc4ncc(C(=O)N5CCOCC5)n4c3)ccc12	> 5.00	< 5.00	–	–	< 5.00	> 5.00
Nc1n[nH]c2cc(-c3ccc4ncc(C(=O)N5CCOCC5)n4c3)ccc12	< 5.00	< 5.00	–	–	< 5.00	< 5.00
Nc1noc2cc(-c3ccc4ncc(C(=O)N5CCOCC5)n4c3)ccc12	< 5.00	< 5.00	–	–	< 5.00	< 5.00
Nc1nsc2cc(-c3ccc4ncc(C(=O)N5CCOCC5)n4c3)ccc12	> 5.00	< 5.00	–	–	< 5.00	< 5.00
Nc1n[nH]c2c(-c3ccc4ncc(C(=O)N5CCOCC5)n4c3)cccc12	< 5.00	< 5.00	–	–	< 5.00	< 5.00
Nc1noc2c(-c3ccc4ncc(C(=O)N5CCOCC5)n4c3)cccc12	< 5.00	< 5.00	–	–	< 5.00	< 5.00
Nc1nc2cc(-c3ccc4ncc(C(=O)N5CCn6cncc6C5)n4c3)ccc2o1	> 7.00	> 6.00	–	–	< 5.00	> 5.00
Nc1nc2cc(-c3ccc4ncc(C(=O)N5CC6(C5)OCCO6)n4c3)ccc2o1	> 7.00	> 5.00	–	–	< 5.00	> 6.00

Structure (SMILES)	pIC50 (PI3K α)	pIC50 (PI3K β)	pIC50 (PI3K δ)	pIC50 (PI3K γ; read-out: PI3K γ IC50)	pIC50 [1]	pIC50 (PI3K γ; read-out: PI3K δ IC50)
C[C@@H]1COCCN1C(=O)c1cnc2ccc(-c3ccc4oc(N)nc4c3)cn12	> 7.00	> 5.00	–	–	< 5.00	> 6.00
Nc1nc2cccc(-c3ccc4nccc(-c5ccncc5)c4c3)c2s1 [Compound 17]	–	> 6.00	> 6.00	> 7.00	–	–
Nc1nc2cc(-c3ccc4nccc(-c5cn[nH]c5)c4c3)ccc2o1 [Compound 20]	> 7.00	> 7.00	> 7.00	–	–	–
Nc1nc2cc(-c3ccc4nccc(CCN5CCOCC5)c4c3)ccc2o1 [Compound 27]	> 6.00	–	> 5.00	> 7.00	–	–
Nc1nc2cc(-c3ccc4nccc(N5CCOCC5)c4c3)ccc2o1 [Compound 28]	> 7.00	–	> 6.00	> 7.00	–	–
Nc1nc2cc(-c3ccc4ncnc(N5CCC(O)CC5)c4c3)ccc2o1 [Compound 29]	> 7.00	–	> 7.00	> 7.00	–	–
CN1CCN(c2cc(-c3ccnc4ccc(-c5ccc6oc(N)nc6c5)cc34)ccn2)CC1 [Compound 30]	> 7.00	–	> 7.00	> 7.00	–	–
Nc1nc2cc(-c3ccc4nccc(-c5cccnc5)c4c3)ccc2o1 [Compound 31]	> 7.00	–	> 7.00	> 7.00	–	–
Nc1nc2cc(-c3ccc4nccc(NC5CCOCC5)c4c3)ccc2o1 [Compound 32]	> 5.00	–	< 5.00	> 5.00	–	–
Nc1nc2cc(-c3ccc4nccc(NCCN5CCOCC5)c4c3)ccc2o1 [Compound 33]	> 7.00	–	> 6.00	> 6.00	–	–
CN1CCC(Oc2ncnc3ccc(-c4ccc5oc(N)nc5c4)cc23)CC1 [Compound 34]	> 7.00	–	> 6.00	> 7.00	–	–
Nc1nc2cc(-c3ccc4ncc(-c5cccnc5)n4c3)ccc2o1 [Compound 37]	> 7.00	–	> 7.00	> 7.00	–	–
Nc1nc2cc(-c3ccc4ncc(-c5cn[nH]c5)n4c3)ccc2o1 [Compound 38]	> 7.00	–	> 7.00	> 7.00	–	–
Nc1nc2cc(-c3ccc4ncc(C#CC5CC5)n4c3)ccc2o1 [Compound 39]	> 7.00	–	> 7.00	> 7.00	–	–
CN1CCN(c2cc(-c3cnc4ccc(-c5ccc6oc(N)nc6c5)cn34)ccn2)CC1 [Compound 43]	> 7.00	–	> 7.00	> 7.00	–	–
Nc1nc2cc(-c3ccc4ncc(N5CC(C(=O)N6CCOCC6)C5)nc4c3)ccc2o1 [drawing 442]	< 5.00	> 5.00	–	–	> 5.00	> 5.00
CN1CCN(C(=O)C2CN(c3cnc4ccc(-c5ccc6oc(N)nc6c5)cc4n3)C2)CC1 [drawing 443]	< 5.00	> 5.00	–	–	> 5.00	> 5.00
CN1CCN(C(=O)c2cnc3ccc(-c4ccc5oc(N)nc5c4)cn23)CC1 [drawing 570]	> 6.00	> 5.00	–	–	< 5.00	> 5.00

Source: patent publication US9682141B2, “Combination of kinase inhibitors and uses thereof” (INTELLIKINE LLC, priority 2011, dated 2017)
